The source of these data is ChEMBL document CHEMBL5257097, “An Isomer of Galidesivir That Potently Inhibits Influenza Viruses and Members of the Bunyavirales Order” (ACS Med Chem Lett, 2023).

SMILES strings stand for the structures.

The term EC50 denotes the concentration that produces a half-maximal response. In general, CC50 refers to the concentration that lowers cell viability or growth by half. What is called EC90 is the point of the concentration-response curve where the effect stands at 90%.

One series has as its system Influenza A virus. Briefly: Antiviral activity against Influenza A virus infected in dog MDCK cells assessed as reduction in viral cytopathic effect. The series is classed as functional, organism-based.
Series [1] in a line: Selectivity index, ratio of CC50 for cytotoxicity against dog MDCK cells infected with Influenza A virus H1N1 assessed as reduction in cell viability by visual analysis to EC50 for antiviral activity against Influenza A virus H1N1 infected in dog MDCK cells assessed as inhibition of viral replication by visual analysis. The series is classed as toxicity, cell-based. To be noted: read-out: Ratio CC50/EC50.

Series [2] can be described thus: Cytotoxicity against dog MDCK cells infected with Influenza B virus assessed as reduction in cell viability by neutral red dye based analysis. It is filed as toxicity, Canis lupus familiaris.
The nature of series [3]: Cytotoxicity against African green monkey Vero E6 cells infected with JUNV assessed as reduction in cell viability by neutral red dye based analysis. It is filed as toxicity, Vero C1008. To be noted: chlorocebus sabaeus.
In another series the test system is Rift Valley fever virus. As to the kind of experiment: Antiviral activity against Rift Valley fever virus infected in African green monkey Vero 76 cells assessed as reduction in viral yield measured for 3 days. The series is classed as functional. As to conditions: Vero 76, 72 h, time 3 day.
Another series deals with Junin virus. As to the kind of experiment: Antiviral activity against Junin virus infected in African green monkey Vero E6 cells assessed as inhibition of viral replication by neutral red dye based analysis. The series is classed as functional, organism-based. As to conditions: Mammarenavirus juninense, Vero C1008.
A short description of series [4]: Cytotoxicity against dog MDCK cells infected with Influenza A virus H3N2 assessed as reduction in cell viability by visual analysis. It is filed as toxicity, cell-based, Canis lupus familiaris.
The test system of another series is La Crosse virus. Briefly: Antiviral activity against La Crosse virus infected in African green monkey Vero E6 cells assessed as inhibition of viral replication by visual analysis. It is filed as functional, organism-based. As to conditions: Vero C1008.
Series [5] is described as follows: Cytotoxicity against African green monkey Vero 76 cells infected with Punta Toro virus assessed as reduction in cell viability by visual analysis. To be noted: chlorocebus sabaeus. It is filed as toxicity, cell-based.

Consider `Nc1ncnc2c([C@@H]3N[C@H](CO)[C@@H](O)[C@H]3O)c[nH]c12` [GALIDESIVIR], for which the EC50 with Influenza A virus turned out to be 1 µM.

As for `Nc1ncnn2c([C@@H]3N[C@H](CO)[C@@H](O)[C@H]3O)ccc12`, in series [1], the selectivity ratio turned out to be 41. Further, the CC50 in [2] came out at 9.8 µM; in [3] it was 9.6 µM; in [4] it was 12 µM; in [5], 13 µM. For the same compound, the EC90 with Rift Valley fever virus was found to be 0.097 µM. Besides, the EC50 in the series with Junin virus was 0.28 µM; in the series with La Crosse virus, < 0.1 µM.
